Measured values taken from publication PMC7000700, “RyR1-targeted drug discovery pipeline integrating FRET-based high-throughput screening and human myofiber dynamic Ca^2+ assays” (Scientific Reports, 2020).

Key:
[1] = system: electrically evoked Ca^2+ transients in rat skinned fibers; test: Electrically evoked Ca2+ transients (EC coupling) in rat skinned skeletal muscle fibers; assay type: cell-based; settings: field stimulation 1 Hz, 100 nM free Ca2+
Source text: To test the potential impact of these compounds on excitation contraction coupling, we measured voltage-induced Ca^2+ transients in rat skeletal muscle fibers. To do this, we again used mechanically skinned fibers. Because the t-system reseals upon mechanical skinning, bathing the preparation in a K^+-based cytoplasmic solution (with a small amount of Na^+) allows the Na^+-K^+ pump to re-establish the normal membrane potential. EC coupling can be initiated by exciting the preparation with field pulses that generate action potentials in the t-system to trigger Ca^2+ release[52]–[54]. Ca^2+ release is tracked by imaging rhod-2 in the cytoplasm via confocal microscopy in line-scan mode, and quantitatively plotted in Fig. 5 (based on recordings such as shown in Supplementary Fig. 7). A major advantage of using skinned fibers is that known concentrations of RyR modulators can be added to the cytoplasm, as they were added in the “leak” experiments. With this approach, we found 1 and 10 μM myricetin reduced Ca^2+ transient peak amplitude by 12% (P = 0.0046) and 48% (P < 0.0001), respectively (Fig. 5 and Supplementary Fig. 7a). In the case of chloroxine, only addition of 100 μM led to a detectable 14% (P < 0.0001) reduction in the Ca^2+ transient peak amplitude (Fig. 5 and Supplementary Fig. 7b). Therefore, both compounds, have impact on Ca^2+ transients that is markedly lower than their effect on the t-tubule readout of RyR1 [Ca^2+] leak (Figs. 4 and 5).
All experimental methods using rats were approved by The Animal Ethics Committee at The University of Queensland. Five month old Wistar rats (UQ Biological Resources, Brisbane) were euthanized by asphyxiation via CO2 exposure, and the extensor digitorum longus (EDL) were rapidly excised.
Skinned rat fibers were prepared and bathed in a resting physiological solution containing 100 nM Ca^2+, 1 mM Mg^2+, 36 mM Na^+, 126 mM K^+, 1 mM EGTA, 90 mM HEPES, […], 10 mM creatine phosphate and 8 mM ATP (pH 7.4). The Ca^2+ sensitive dye rhod-2 was used to track cytosolic Ca^2+ transients when exposed to electrical stimulation. […]

RyR2 = RyR2 (Sus scrofa, UniProt A0A5G2R1W3); test: F-FKBP binding to RyR2 by co-sedimentation with cardiac SR membranes; design: using co-sedimentation with pig skeletal and cardiac SR membranes; from tissue; host or cells: pig cardiac muscle (crude SR membranes); species or system pig; settings: RyR2, 10 μM Hit, 30 nM Ca2+, 5 mM GSSG or GSH
Method: The Hit-induced effect on FRET between D-FKBP and A-CaM most likely results from one or the combination of factors, including a shift in CaM and/or FKBP12.6 binding, and/or structure of the RyR complex that shifts the D-A distance. Under the same assay conditions as in the primary screen, we assessed the effect of 10 μM Hit on fluorescent FKBP12.6 (F-FKBP) binding to RyRs, using co-sedimentation with pig skeletal and cardiac SR membranes.
Supplementary Fig. 3 Effect of HTS Hits on F-FKBP binding to a) RyR1 in skeletal HSR membranes, and b) RyR2
in cardiac CSR membranes at 30 nM Ca2+ in the presence of 5 mM GSSG or GSH. Results are represented as individual
data points and means ± SEM, n = 4-5. *P < 0.05 by 2-sided Student’s unpaired t-test. […]

MH-linked RyR1 mutant = system: MH-linked RyR1 mutant; design: method as in PMID 29674523; settings: HEK293 cells; cited from earlier work
RyR1 [2] = molecular target: T1, RyR1 (Sus scrofa, UniProt P16960); design: RyR1 in skeletal SR membranes; from tissue; host or cells: porcine longissimus dorsi muscle (heavy SR vesicles); method as in PMID 27760856; settings: NIH Clinical Collection screen; cited from earlier work
RyR1 [3] = molecular target: T1, RyR1; design: RyR1 in skeletal SR membranes; from tissue; host or cells: porcine longissimus dorsi muscle (heavy SR vesicles); method as in PMID 27760856; settings: skeletal HSR, previous study; cited from earlier work

T1 sequence (P16960 whole entry): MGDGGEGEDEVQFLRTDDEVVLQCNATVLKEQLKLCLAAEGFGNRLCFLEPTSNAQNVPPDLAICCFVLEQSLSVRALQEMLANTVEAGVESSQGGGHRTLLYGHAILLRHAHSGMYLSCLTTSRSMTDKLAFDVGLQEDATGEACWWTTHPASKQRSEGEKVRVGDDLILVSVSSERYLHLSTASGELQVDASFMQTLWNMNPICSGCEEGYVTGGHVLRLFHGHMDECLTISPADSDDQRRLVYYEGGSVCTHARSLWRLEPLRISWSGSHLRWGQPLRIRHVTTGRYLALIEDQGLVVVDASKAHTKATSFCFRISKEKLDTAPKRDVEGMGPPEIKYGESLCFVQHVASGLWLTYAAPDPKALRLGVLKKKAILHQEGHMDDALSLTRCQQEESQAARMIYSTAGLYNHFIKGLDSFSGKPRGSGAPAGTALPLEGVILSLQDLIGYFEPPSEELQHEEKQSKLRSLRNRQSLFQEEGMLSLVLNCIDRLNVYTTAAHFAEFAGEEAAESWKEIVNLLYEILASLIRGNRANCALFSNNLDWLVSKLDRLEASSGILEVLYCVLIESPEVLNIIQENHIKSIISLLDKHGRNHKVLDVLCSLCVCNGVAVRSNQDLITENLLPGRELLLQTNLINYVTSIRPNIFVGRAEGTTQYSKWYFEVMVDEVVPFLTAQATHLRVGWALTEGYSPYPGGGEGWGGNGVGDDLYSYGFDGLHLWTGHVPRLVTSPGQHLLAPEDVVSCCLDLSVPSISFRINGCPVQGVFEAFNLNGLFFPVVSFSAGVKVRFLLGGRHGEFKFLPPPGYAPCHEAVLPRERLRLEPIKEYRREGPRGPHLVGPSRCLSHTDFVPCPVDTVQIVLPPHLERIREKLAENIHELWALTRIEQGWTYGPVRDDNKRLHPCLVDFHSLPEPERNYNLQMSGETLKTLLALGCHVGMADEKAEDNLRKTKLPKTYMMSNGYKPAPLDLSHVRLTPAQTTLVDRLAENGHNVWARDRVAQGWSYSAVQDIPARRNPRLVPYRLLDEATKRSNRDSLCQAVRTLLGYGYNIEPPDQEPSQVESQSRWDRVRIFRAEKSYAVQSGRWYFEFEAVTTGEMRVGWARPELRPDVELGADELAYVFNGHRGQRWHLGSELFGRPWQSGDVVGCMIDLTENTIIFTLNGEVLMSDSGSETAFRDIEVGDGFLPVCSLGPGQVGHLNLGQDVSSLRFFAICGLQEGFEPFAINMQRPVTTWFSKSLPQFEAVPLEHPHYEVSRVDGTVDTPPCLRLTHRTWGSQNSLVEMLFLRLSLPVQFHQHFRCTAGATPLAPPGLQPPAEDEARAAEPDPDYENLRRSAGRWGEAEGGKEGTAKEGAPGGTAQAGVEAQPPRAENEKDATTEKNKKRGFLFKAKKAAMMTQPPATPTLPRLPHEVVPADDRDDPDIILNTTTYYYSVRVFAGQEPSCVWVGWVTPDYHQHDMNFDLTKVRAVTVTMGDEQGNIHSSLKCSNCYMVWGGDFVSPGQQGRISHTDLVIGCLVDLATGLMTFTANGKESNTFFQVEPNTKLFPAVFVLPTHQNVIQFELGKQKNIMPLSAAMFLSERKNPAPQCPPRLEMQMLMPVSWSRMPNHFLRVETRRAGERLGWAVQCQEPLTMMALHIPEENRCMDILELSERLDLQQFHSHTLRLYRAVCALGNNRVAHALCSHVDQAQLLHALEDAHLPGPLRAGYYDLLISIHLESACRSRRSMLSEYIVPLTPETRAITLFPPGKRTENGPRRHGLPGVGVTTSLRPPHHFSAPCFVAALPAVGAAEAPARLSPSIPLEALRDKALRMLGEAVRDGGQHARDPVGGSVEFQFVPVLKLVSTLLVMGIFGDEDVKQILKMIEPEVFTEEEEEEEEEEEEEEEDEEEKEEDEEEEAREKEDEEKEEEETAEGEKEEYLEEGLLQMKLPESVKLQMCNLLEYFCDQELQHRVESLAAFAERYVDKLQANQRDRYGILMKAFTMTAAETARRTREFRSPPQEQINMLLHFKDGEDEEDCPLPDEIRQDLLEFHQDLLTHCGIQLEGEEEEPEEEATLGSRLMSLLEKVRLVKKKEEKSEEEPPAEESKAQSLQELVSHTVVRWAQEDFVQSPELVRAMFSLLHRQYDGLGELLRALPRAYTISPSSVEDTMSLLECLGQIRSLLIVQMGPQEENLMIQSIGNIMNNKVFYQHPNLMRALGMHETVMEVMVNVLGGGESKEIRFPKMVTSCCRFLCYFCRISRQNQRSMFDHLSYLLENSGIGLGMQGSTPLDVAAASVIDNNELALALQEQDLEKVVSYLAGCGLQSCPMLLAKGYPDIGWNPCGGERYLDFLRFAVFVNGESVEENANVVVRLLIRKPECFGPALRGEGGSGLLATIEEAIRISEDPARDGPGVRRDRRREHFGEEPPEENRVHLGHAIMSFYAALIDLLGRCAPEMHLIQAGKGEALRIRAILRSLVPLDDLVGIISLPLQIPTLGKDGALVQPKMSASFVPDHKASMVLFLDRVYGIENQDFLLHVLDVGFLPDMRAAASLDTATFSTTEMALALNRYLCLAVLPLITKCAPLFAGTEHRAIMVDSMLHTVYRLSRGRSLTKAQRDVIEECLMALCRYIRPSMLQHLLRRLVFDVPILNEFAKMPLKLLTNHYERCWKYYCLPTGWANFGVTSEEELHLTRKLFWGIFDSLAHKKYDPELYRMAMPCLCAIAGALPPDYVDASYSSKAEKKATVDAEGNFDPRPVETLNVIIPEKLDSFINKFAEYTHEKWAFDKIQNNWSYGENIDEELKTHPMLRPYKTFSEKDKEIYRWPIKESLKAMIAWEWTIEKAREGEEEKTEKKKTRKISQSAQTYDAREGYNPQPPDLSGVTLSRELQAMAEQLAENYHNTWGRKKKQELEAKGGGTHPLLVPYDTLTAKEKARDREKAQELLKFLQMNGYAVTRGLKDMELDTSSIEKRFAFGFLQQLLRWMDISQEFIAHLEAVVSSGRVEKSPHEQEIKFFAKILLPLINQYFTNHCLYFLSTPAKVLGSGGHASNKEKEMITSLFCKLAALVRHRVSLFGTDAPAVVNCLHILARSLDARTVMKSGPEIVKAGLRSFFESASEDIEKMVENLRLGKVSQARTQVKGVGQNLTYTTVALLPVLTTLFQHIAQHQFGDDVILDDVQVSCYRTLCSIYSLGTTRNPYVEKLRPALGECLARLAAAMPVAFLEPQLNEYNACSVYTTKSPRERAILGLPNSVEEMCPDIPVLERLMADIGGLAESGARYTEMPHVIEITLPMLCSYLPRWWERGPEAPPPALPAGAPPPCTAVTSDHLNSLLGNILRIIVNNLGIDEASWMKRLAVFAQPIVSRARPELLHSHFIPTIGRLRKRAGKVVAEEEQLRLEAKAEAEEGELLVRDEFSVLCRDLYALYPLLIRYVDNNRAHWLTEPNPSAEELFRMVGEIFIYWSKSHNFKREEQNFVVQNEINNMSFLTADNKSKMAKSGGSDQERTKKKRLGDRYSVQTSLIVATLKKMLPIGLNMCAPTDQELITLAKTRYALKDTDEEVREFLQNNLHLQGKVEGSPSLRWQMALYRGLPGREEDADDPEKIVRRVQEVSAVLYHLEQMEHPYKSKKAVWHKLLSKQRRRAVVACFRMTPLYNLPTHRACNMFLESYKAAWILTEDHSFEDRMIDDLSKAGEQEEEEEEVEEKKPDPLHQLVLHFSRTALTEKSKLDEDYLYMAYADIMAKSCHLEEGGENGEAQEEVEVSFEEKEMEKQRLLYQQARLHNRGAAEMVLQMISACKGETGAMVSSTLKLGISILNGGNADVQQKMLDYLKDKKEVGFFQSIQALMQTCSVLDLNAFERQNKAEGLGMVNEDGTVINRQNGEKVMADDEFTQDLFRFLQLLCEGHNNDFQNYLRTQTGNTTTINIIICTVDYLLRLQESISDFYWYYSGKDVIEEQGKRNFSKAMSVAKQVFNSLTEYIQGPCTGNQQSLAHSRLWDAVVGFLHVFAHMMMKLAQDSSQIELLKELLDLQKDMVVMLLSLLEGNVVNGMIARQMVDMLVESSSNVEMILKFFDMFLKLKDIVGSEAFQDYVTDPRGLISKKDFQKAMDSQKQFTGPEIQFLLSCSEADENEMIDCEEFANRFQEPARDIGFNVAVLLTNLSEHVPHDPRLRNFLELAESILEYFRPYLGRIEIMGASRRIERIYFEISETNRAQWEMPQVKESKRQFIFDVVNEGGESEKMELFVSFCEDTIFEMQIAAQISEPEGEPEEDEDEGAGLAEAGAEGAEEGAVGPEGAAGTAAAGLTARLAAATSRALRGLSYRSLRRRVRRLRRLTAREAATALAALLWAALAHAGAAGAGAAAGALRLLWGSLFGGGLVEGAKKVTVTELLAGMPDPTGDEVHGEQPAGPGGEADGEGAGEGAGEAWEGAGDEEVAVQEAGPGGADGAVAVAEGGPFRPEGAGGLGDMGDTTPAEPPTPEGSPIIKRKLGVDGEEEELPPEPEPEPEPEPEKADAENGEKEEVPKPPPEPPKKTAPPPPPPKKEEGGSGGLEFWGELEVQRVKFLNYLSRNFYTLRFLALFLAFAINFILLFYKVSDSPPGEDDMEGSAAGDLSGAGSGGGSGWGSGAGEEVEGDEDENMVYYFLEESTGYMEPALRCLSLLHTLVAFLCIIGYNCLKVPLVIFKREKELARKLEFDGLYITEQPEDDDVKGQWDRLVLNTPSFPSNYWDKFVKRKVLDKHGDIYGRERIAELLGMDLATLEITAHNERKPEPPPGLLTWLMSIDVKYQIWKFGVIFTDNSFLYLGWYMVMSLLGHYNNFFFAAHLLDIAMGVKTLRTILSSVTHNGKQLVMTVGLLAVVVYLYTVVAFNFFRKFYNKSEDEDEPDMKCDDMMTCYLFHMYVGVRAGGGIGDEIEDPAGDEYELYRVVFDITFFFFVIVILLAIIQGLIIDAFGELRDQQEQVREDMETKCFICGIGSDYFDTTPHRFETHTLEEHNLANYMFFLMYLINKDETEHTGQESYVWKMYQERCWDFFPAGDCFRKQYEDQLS

**Q.** With `O=c1c(O)c(-c2cc(O)c(O)c(O)c2)oc2cc(O)cc(O)c12` [myricetin] as the compound, how does the “Reduction of Ca2+ transient peak amplitude” value (“Reduction” for short) ([1]; 1 μM compound) read?
**A.** The value was 12%.

**Q.** What about the “Reduction” value ([1]; 10 μM compound) of the same compound?
**A.** The value was 48%.

**Q.** And the “Decrease of F-FKBP binding” value (RyR2)?
**A.** The value was “did not alter”.

**Q.** Which “Reduction” value ([1]; 100 μM compound) does the source give for `Oc1c(Cl)cc(Cl)c2cccnc12` [chloroxine] here?
**A.** The value was 14%.

**Q.** And the “Effect on readout of ER Ca2+ phenotypic screen” value (MH-linked RyR1 mutant)?
**A.** The value was “increased RyR1 activity”.

**Q.** What about the “Effect on FRET in previous 384-well screen” value (RyR1 [2]) of the same compound?
**A.** The value was “increased FRET”.

**Q.** And the “Decrease in [3H]ryanodine binding” value (RyR1 [3])?
**A.** Its value is 20%.
